Experimental findings from paper PMC4877642 (2016) are described below.

For test [1], the system named is X-Aptamer 7 (DNA, aptamer, dU with phenol (tyrosine) at C5 (Y) at 23; dU with indole (tryptophan) at C5 (W) at 36 and 37) TTTTTTTCTAGCTTCCGTGAAATCAACGTGACCTGTTTAGTGATCTTTTT
Nature of the test: SPR imaging, kinetic 1:1 fit. The settings on record: 10 mM PBS; pH 7.4, 4% acetonitrile, room temperature; 150 µM progesterone injected in screening.

The subject of test [2] is X-Aptamer 3 (DNA, aptamer, dU with phenol (tyrosine) at C5 (Y) at 18; dU with indole (tryptophan) at C5 (W) at 38) TTTTTTTCTAGAGATGTTTGTCTCAACGTGCCCTGCGTCGTGATCTTTTT
Nature of the test: SPR imaging, kinetic 1:1 fit. The settings on record: 10 mM PBS; pH 7.4, 4% acetonitrile, room temperature; 150 µM progesterone injected in screening.

The subject of test [3] is X-Aptamer 5 (DNA, aptamer, dU with phenol (tyrosine) at C5 (Y) at 23; dU with indole (tryptophan) at C5 (W) at 37 and 38) TTTTTTTCTAGCTTCCGTGAAATCAACGTGCCCTGGTTCGTCTAGTTTTT
Nature of the test: SPR imaging, kinetic 1:1 fit. Particulars: 10 mM PBS; pH 7.4, 4% acetonitrile, room temperature; 150 µM progesterone injected in screening.

Test [4] concerns X-Aptamer 2 (DNA, aptamer, dU with phenol (tyrosine) at C5 (Y) at 18; dU with indole (tryptophan) at C5 (W) at 38) TTTTTTTCTAGCTTCGTTTGTCTCAACGTGCCCTGCGTCGTGATCTTTTT
Put plainly: SPR imaging, kinetic 1:1 fit. The settings on record: 10 mM PBS; pH 7.4, 4% acetonitrile, room temperature; 150 µM progesterone injected in screening.

For test [5], the system named is X-Aptamer 6 (DNA, aptamer, dU with phenol (tyrosine) at C5 (Y) at 23; dU with indole (tryptophan) at C5 (W) at 37) TTTTTTTCTAGCTTCCGTGAAATCAACGTGCCCTGGTTAGTCTAGTTTTT
Nature of the test: SPR imaging, kinetic 1:1 fit. The settings on record: 10 mM PBS; pH 7.4, 4% acetonitrile, room temperature; 150 µM progesterone injected in screening.

In test [6] the test system is X-Aptamer 8 (DNA, aptamer, dU with phenol (tyrosine) at C5 (Y) at 23; dU with indole (tryptophan) at C5 (W) at 37, 39 and 41) TTTTTTTCTAGCTTCCGTGAAATCAACGTGCCCTGGTATCTGATCTTTTT
Nature of the test: SPR imaging, kinetic 1:1 fit. Particulars: 10 mM PBS; pH 7.4, 4% acetonitrile, room temperature; 150 µM progesterone injected in screening.

In test [7] the test system is X-Aptamer 9 (DNA, aptamer, dU with phenol (tyrosine) at C5 (Y) at 23; dU with indole (tryptophan) at C5 (W) at 36, 37 and 39) TTTTTTTCTAGCTTCCGTGAAATCAACGTGCCCTGTTATCGCTAGTTTTT
Put plainly: SPR imaging, kinetic 1:1 fit. Particulars: 10 mM PBS; pH 7.4, 4% acetonitrile, room temperature; 150 µM progesterone injected in screening.

Test [8] relates to X-Aptamer 5 (DNA, aptamer, dU with phenol (tyrosine) at C5 (Y) at 23; dU with indole (tryptophan) at C5 (W) at 37 and 38) TTTTTTTCTAGCTTCCGTGAAATCAACGTGCCCTGGTTCGTCTAGTTTTT
Put plainly: SPR imaging. The settings on record: 10 mM PBS; pH 7.4, 4% acetonitrile, room temperature; tested at 63 µg/mL.

Take `CC(=O)[C@H]1CC[C@H]2[C@@H]3CCC4=CC(=O)CC[C@]4(C)[C@H]3CC[C@]12C`: the equilibrium dissociation constant (KD) worked out at 0.14037 ± 6.4e-05 nM in test [1]; 0.02174 ± 8.7e-05 nM in test [2]; 0.02558 nM in test [3]; 0.04951 ± 9.9e-05 nM in test [4]; 0.05303 ± 6.1e-05 nM in test [5]; 0.04079 ± 7.6e-05 nM in test [6]. In test [7], the dissociation constant (KD) is 0.06186 ± 7.6e-05 nM.
Turning to `C[C@]12CC[C@@H]3c4ccc(O)cc4CC[C@H]3[C@@H]1CC[C@@H]2O`, the binding result in test [8] is listed as “no”.
